Reference: publication PMC12910498 (ACS pharmacology & translational science, 2026)
Where two headings read alike, the source gives them in different places.

What was measured:
[1] = Phase I metabolic stability in human liver microsomes (with NADPH); format: in vitro ADME; settings: pH 7.4, presence of NADPH, mean ± SD, n = 3
Description: (§1) We evaluated the Phase I metabolic stability of compounds 2−7 and 14−19 using rat and human liver microsomes, as previously described.[45]
(§2) Phase I metabolic stability assays were conducted using rat and human liver microsomes as previously described[45],[70] with minor modifications. In brief, the reactions were carried out with 100 mM potassium phosphate buffer, pH 7.4, in the presence of NADPH regenerating system (1.3 mM NADPH, 3.3 mM glucose 6-phosphate, 3.3 mM MgCl2, 0.4 U/mL glucose-6-phosphate dehydrogenase, 50 μM sodium citrate). Negative controls without cofactors were assessed to determine the non-CYP-mediated metabolism. Compound disappearance was monitored over time using a liquid chromatography and tandem mass spectrometry (LC/MS) method. All reactions were performed in triplicate.
(§3) Chromatographic analysis was performed on a Dionex ultra high-performance LC system coupled with Q Exactive Focus orbitrap mass spectrometer (Thermo Fisher Scientific Inc., Waltham MA). Separation was achieved using Agilent Eclipse Plus column (100 × 2.1 mm^2 i.d.; maintained at 35 °C) packed with a 1.8 μm C18 stationary phase. […] The total run time for each analyte was 6.5 min. Pumps were operated at a flow rate of 0.3 mL/min. The mass spectrometer controlled by Xcalibur software 4.0.27.13 (Thermo Scientific) was operated with a HESI ion source in positive ionization mode. Compounds were identified in the full-scan mode (from m/z 50 to 750) by comparing t = 0 samples with t = 30 min and t = 60 min samples.

[2] = Phase I metabolic stability in rat liver microsomes (with NADPH); format: in vitro ADME; settings: pH 7.4, presence of NADPH, mean ± SD, n = 3
Description: as §1, §2, §3

[3] = molecular target: human D2R long isoform (Homo sapiens, UniProt P14416); set-up: host or cells: CHO-K1; method as in PMID 30883109; settings: antagonist mode; previously reported; cited from earlier work
[4] = molecular target: T1, human D3R (Homo sapiens, UniProt P35462); set-up: expressed in transfected cells; host or cells: HEK293; method as in PMID 30883109; settings: HEK293 membranes, hD3R; previously reported; read-out: Ki (nM) ± SEM [3H]N-methlyspiperone D3R; cited from earlier work
[5] = molecular target: T2, human D4R (Homo sapiens, UniProt P21917); settings: for D4R Ant. (%): antagonist mode, 10 μM forskolin and 10 nM dopamine, normalized to spiperone; for Emax: read-out: D4R Emax (%)
T2 sequence (P21917 1-419): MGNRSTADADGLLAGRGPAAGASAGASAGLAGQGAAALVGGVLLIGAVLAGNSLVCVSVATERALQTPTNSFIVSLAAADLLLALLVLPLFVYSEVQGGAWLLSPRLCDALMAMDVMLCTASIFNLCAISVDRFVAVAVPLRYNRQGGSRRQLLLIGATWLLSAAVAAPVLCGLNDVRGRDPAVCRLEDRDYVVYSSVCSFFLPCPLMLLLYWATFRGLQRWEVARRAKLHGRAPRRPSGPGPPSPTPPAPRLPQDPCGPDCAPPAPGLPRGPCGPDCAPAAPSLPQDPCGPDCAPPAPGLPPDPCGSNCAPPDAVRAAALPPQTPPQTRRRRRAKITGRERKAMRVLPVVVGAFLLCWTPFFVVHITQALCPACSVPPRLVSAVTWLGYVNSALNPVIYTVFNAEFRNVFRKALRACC

[6] = Non-Phase I metabolic stability in human liver microsomes (absence of NADPH); format: in vitro ADME
Description: We also evaluated the non-Phase I metabolic stability of compounds 2−7 and 14−19 using rat and human liver microsomes. […] This may represent metabolism by hydrolases that can specifically attack the amide. Evidence in support of this hypothesis is shown by the remarkable stability of all triazole analogs (14−19) in the absence of NADPH in Figure 5B,D.
as §2
Chromatographic analysis was performed on a Dionex ultra high-performance LC system coupled with Q Exactive Focus orbitrap mass spectrometer (Thermo Fisher Scientific Inc., Waltham MA). Separation was achieved using Agilent Eclipse Plus column (100 × 2.1 mm^2 i.d.; maintained at 35 °C) packed with a 1.8 μm C18 stationary phase. […] The total run time for each analyte was 6.5 min. […]

[7] = Aqueous solubility (remark); format: physicochemical; settings: remark in text
[8] = molecular target: T2, human D4R; set-up: host or cells: CHO-K1; method as in PMID 30883109; settings: previously reported, cited from earlier work; for D4R Emax (%): agonist mode; for D4R Ant. (%): antagonist mode
[9] = molecular target: T3, D5 (Homo sapiens, UniProt P21918); assay: PDSP primary screen, D5; format: binding; settings: 10 µM compound
T3 construct: Psychoactive Drug Screening Program (PDSP)
Description: (§4) Receptor Primary Secondary Primary Secondary Primary Secondary Primary Secondary screen assay screen assay screen assay screen assay […]
(§5) inhibition in primary assessment.

[10] = molecular target: T4, D1 (Homo sapiens, UniProt P21728); assay: PDSP primary screen and secondary assay, D1; format: binding; settings: 10 µM compound
T4 construct: Psychoactive Drug Screening Program (PDSP)
Description: as §4, §5

[11] = Pharmacokinetics study in rats (plasma and brain); format: in vivo, Sprague−Dawley rats; settings: rat, 5 mg/kg IP
Description: Given their adequate in vitro stability profiles, we next evaluated the in vivo pharmacokinetic profiles of 14, 15, 17, and 18 in rats. Sprague−Dawley rats were dosed with 5 mg/kg (14, 15, 17) or 10 mg/kg (18), i.p., and plasma and brain levels of each drug were measured 0−6 h postdose.
All animal experiments were performed following the protocols evaluated and approved by the Animal Care and Use Committee at Johns Hopkins University (Ethics Approval Number: RA24M403). Pharmacokinetic studies in Sprague−Dawley (SD) rats were conducted according to protocols approved. SD rats obtained from Harlan were maintained on a 12 h light−dark cycle with ad libitum access to food and water. Test compound was administered via i.p. injection at a dose of 10 mg/kg (100% saline vehicle, 10 mL/kg volume). The rats were sacrificed at specified time points (0.25, 0.5 h, 1, 2, 4, and 6 h) post drug administration. For the collection of plasma and brain tissue, animals were euthanized with CO2, and blood samples were collected in heparinized microtubes by cardiac puncture. Brains were dissected and immediately flash-frozen (−80 °C). Blood samples were spun at 2000g for 15 min, and plasma was removed and stored at −80 °C until analysis (as described below).
Quantitation of triazole analogs 14, 15, 17, and 18 was performed using liquid chromatography with tandem mass spectrometry (LC/MS-MS) methods. Briefly, calibration standards were prepared using respective tissue (naïve plasma and brain) with additions of the test compounds. For quantifying the test compounds in the pharmacokinetic samples, plasma samples (20 μL) were processed using a single liquid extraction method by addition of 100 μL of acetonitrile containing internal standard (losartan: 0.5 μM), followed by vortex-mixing for 30 s and then centrifugation at 10,000g for 10 min at 4 °C. Brain tissues were diluted 1:5 w/v with acetonitrile containing losartan (0.5 μm) and homogenized, followed by vortex-mixing and centrifugation at 10,000g for 10 min at 4 °C. A 50 μL aliquot of the supernatant was diluted with 50 μL of water and transferred to 250 μL polypropylene autosampler vials sealed with Teflon caps. Two μL of the sample was injected into the LC/MS/MS system for analysis. Chromatographic analysis was performed using an Accela ultra high-performance system consisting of an analytical pump and an autosampler coupled with a TSQ Vantage mass spectrometer. […] The mobile phase consisted of 0.1% formic acid in acetonitrile and 0.1% formic acid in water with gradient elution, starting with 10% organic phase (from 0 to 1 min) linearly increasing to 95% (from 1 to 2 min), and re-equilibrating to 10% by 3 min. The total run time for each analyte was 3.5 min. Pumps were operated at a flow rate of 0.4 mL/min. […] Plasma concentrations (nmol/mL) as well as brain tissue concentrations (nmol/g) were determined and plots of mean plasma concentration versus time were constructed. Noncompartmental analysis modules in Phoenix WinNonlin version 7.0 (Certara USA, Inc., Princeton, NJ) were used to quantify exposures (AUC0−t) and half-life (t1/2).

[12] = molecular target: T2, human D4R; assay: [3H]N-methylspiperone radioligand competition binding, hD4R membranes
[13] = molecular target: T1, human D3R; assay: biochemical
[14] = molecular target: T2, human D4R; assay: DiscoverX PathHunter β-arrestin recruitment assay, D4R
[15] = molecular target: human D2LR (Homo sapiens, UniProt P14416); assay: biochemical
[16] = molecular target: T1, human D3R; set-up: host or cells: CHO-K1; method as in PMID 30883109; settings: previously reported, cited from earlier work; for D3R Emax (%): agonist mode

T1 sequence (P35462 whole entry): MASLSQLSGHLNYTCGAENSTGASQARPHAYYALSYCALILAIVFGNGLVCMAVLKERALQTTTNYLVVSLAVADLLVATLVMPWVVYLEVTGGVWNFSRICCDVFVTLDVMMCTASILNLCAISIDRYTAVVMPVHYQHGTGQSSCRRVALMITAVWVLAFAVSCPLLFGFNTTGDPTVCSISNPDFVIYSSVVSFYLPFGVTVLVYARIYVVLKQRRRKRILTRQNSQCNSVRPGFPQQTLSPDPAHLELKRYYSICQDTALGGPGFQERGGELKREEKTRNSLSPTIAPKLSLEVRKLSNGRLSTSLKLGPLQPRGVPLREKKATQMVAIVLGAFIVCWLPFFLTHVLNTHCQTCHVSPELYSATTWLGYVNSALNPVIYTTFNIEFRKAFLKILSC
Sequence of human D2R long isoform (P14416 whole entry, canonical isoform): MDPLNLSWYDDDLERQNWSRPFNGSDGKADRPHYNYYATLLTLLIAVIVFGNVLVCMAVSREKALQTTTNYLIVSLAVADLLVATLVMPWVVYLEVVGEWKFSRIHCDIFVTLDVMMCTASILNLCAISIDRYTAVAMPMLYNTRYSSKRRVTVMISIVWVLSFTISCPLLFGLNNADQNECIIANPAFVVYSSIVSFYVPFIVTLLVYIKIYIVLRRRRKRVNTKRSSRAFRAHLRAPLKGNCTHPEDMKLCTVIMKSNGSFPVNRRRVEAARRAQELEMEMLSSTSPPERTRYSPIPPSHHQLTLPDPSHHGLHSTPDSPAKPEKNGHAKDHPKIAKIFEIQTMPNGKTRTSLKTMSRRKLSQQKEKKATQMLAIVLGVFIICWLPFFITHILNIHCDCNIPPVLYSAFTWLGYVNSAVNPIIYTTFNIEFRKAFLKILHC
T3 sequence (P21918 whole entry): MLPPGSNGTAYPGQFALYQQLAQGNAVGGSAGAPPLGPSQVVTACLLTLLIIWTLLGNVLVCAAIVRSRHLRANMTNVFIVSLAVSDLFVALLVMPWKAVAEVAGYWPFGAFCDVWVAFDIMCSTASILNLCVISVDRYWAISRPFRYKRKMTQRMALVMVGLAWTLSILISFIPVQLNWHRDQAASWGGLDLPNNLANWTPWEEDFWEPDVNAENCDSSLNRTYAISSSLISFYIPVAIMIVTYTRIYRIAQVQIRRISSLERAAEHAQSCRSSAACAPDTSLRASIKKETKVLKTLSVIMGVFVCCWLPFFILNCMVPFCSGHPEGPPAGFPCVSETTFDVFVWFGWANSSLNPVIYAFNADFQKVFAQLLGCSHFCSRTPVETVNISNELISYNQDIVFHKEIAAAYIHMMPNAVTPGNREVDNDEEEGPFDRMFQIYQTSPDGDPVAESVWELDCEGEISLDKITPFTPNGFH
T4 sequence (P21728 whole entry): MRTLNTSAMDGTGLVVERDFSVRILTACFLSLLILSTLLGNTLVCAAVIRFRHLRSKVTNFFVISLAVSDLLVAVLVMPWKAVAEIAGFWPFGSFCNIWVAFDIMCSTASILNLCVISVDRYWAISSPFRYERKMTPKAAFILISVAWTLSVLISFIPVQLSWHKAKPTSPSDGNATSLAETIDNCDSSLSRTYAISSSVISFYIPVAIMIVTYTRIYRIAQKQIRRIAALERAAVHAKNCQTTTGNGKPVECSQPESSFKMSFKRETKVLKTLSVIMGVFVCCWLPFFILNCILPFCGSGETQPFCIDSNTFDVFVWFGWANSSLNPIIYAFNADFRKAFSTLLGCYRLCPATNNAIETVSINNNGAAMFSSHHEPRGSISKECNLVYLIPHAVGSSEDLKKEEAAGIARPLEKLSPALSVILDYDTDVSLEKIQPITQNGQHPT
Sequence of human D2LR (P14416 whole entry): as the sequence (P14416 whole entry, canonical isoform) above

| Compound | half-life [1] [min] | half-life [2] [min] | D2R Ant (%) [3] [%] | Ki [4] [nM] | IC50 [5] [nM] | D4R Ant. (%) ([5]; cAMP) | non-Phase I metabolic stability [6] | D4R Emax (%) [8] [%] | D4R Ant. (%) [8] [%] | D3R Emax (%) [16] [%] | IC50 ([16]; antagonist mode) [nM] | EC50 [5] [nM] | Emax [5] [%] | also measured |
| --- | --- | --- | --- | --- | --- | --- | --- | --- | --- | --- | --- | --- | --- | --- |
| Cc1cccc(NC(=O)CN2CCN(c3ccc(Cl)cn3)CC2)c1 [Compound 7] | 74.2 ± 4.56 | 9.51 ± 0.12 | 100 ± 0 | > 50000 | 2870 ± 817 | 110 ± 7 |  |  |  |  |  |  |  |  |
| Cc1cccc(NC(=O)CN2CCN(c3cccc4ccccc34)CC2)c1 [Compound 6] | 16.6 ± 0.17 | 10.5 ± 0.03 | 100 ± 0 |  | > 50000 | 91 ± 7 | relatively little non-Phase I metabolism | 16.4 ± 3.9 | 96.7 ± 2.7 |  |  |  |  | aqueous solubility [7]: poor aqueous solubility; D4R average activity at the highest tested dose ([5]; cAMP, agonist mode, at 33 μM (Emax ND)): ND (16% at 33 μM) |
| Cc1cccc(-n2cc(CN3CCN(c4ccc(Cl)cn4)CC3)nn2)c1 [Compound 17, 1-(5-Chloropyridin-2-yl)-4-((1-(m-tolyl)-1H-1,2,3-triazol-4-yl)methyl)piperazine] | 46.8 ± 6.69 | 64.8 ± 2.12 |  |  | 134 ± 36.4 | 85 ± 1 |  |  |  |  |  |  |  | inhibition at 10 µM [9]: 6.22%; inhibition at 10 µM [10]: 16.7%; Kp ([11]; Sprague-Dawley, brain and plasma, ip, 5 mg/kg, AUC brain/plasma, read-out: brain: Plasma ratio): 0.3; half-life ([11]; Sprague-Dawley, brain, ip, 5 mg/kg, brain, read-out: half-life (h) brain (converted)): 2.36 h; half-life ([11]; Sprague-Dawley, plasma and brain, ip, 5 mg/kg, tissue not specified, read-out: half-life (converted)): ≥ 2.1 h; half-life ([11]; Sprague-Dawley, plasma, ip, 5 mg/kg, plasma, read-out: half-life (h) plasma (converted)): 2.1 h; Tmax ([11]; Sprague-Dawley, brain, read-out: Tmax (h) brain): 0.25 h; AUC ([11]; Sprague-Dawley, plasma): 15.1 ± 1.83 µM·h; Cmax ([11]; Sprague-Dawley, plasma): 10 ± 1.27 µM; Tmax ([11]; Sprague-Dawley, plasma, read-out: Tmax (h) plasma): 0.25 h; AUC brain ([11]; brain): 4.57 ± 0.50 nmol·h/g; Cmax brain ([11]; brain): 3.04 ± 0.45 nmol/g; peak in vivo brain concentrations expected ([11]; from brain Cmax): greater than 3.0 μM; Ki [12]: 77.7 ± 19.9 nM; Selectivity D2R/D4R ([12]; ratio of Ki values): >1287; Selectivity D3R/D4R ([12]; ratio of Ki values): >1287; Ki [13]: > 100000 nM; IC50 [14]: 3800 ± 720 nM; D4R Ant. (%) ([14]; antagonist mode, EC80 dopamine (1 μM), normalized to spiperone): 91.6 ± 4.7%; Ki [15]: > 100000 nM |
| Cc1cccc(NC(=O)CN2CCN(c3ncccn3)CC2)c1 [Compound 4] | 39.8 ± 2.16 | 26.83 ± 0.21 |  | > 10000 |  | 29 ± 5 |  | 24.7 ± 5 | 80.6 ± 3.0 | 58.4 ± 6.6 | > 100000 | 7.93 ± 2.12 | 60 ± 4 |  |
| CCc1cccc(NC(=O)CN2CCN(c3ccccn3)CC2)c1 [Compound 3] | 249 ± 66.5 | 20.8 ± 1.99 |  |  | 267 ± 115 | 30 ± 1 | nonexistent | 26.2 ± 5.1 | 59.7 ± 4.6 | 44.7 ± 5.9 |  | 5.38 ± 1.08 | 59 ± 4 | D3R Ant. (%) ([16]; antagonist mode): 100 ± 0% |
| Cc1cccc(NC(=O)CN2CCN(c3ccccn3)CC2)c1 [Compound 2] | 67 ± 2.41 | 9.92 ± 0.18 |  | > 10000 |  | 16 ± 1 |  | 30.7 ± 6.4 | 78.9 ± 3.1 | 49.4 ± 2.0 | > 100000 | 2.92 ± 0.15 | 65 ± 3 |  |
